Measured values as given in patent US9598416B2, “Substituted benzothienyl-pyrrolotriazines and uses thereof in the treatment cancer” (Bayer Intellectual Property GmbH, priority 2011, dated 2017).
Where a name gives a salt, the structure may show the parent alone.

Target: human mTOR (Homo sapiens (Human), UniProt P42345)
Assay: mTOR kinase assay (TR-FRET, for comparative purposes)
Assay type: biochemical
Settings: 1 μM test compound; mean inhibition values
From the text: mTOR inhibitory activity of the compounds of the present invention was quantified employing the TR-FRET based mTOR assay as described in the following paragraphs: Recombinant fusion tagged mTOR protein [glutathione-S-transferase (GST) fused to human mTOR amino acids from 1360 to 2549], expressed in insect cells and purified by glutathione-sepharose affinity chromatography, was purchased from Invitrogen (Cat.-No. 4753) and used as enzyme. As substrate for the kinase reaction, a recombinant fusion protein of GFP and 4E-BP1 (purchased from Invitrogen, Cat.-No. PV4759) was used. Test compounds were dissolved in DMSO to generate 10 mM stock solutions. […] The resulting mixture was incubated for 1 h at 22° C. to allow formation of the complex between the phosphorylated substrate and the Tb-chelate labelled antibody. Subsequently, the amount of phosphorylated substrate was evaluated by measurement of the resonance energy transfer from the Tb-chelate to the GFP. For this, the fluorescence emissions at 495 nm and 520 nm after excitation at 340 nm was measured in an Envision 2104 multilabel reader (Perkin-Elmer). The ratio of the emissions at 520 nm and at 495 nm was taken as the measure for the amount of phosphorylated substrate.

human mTOR, sequence (P42345 1360-2549): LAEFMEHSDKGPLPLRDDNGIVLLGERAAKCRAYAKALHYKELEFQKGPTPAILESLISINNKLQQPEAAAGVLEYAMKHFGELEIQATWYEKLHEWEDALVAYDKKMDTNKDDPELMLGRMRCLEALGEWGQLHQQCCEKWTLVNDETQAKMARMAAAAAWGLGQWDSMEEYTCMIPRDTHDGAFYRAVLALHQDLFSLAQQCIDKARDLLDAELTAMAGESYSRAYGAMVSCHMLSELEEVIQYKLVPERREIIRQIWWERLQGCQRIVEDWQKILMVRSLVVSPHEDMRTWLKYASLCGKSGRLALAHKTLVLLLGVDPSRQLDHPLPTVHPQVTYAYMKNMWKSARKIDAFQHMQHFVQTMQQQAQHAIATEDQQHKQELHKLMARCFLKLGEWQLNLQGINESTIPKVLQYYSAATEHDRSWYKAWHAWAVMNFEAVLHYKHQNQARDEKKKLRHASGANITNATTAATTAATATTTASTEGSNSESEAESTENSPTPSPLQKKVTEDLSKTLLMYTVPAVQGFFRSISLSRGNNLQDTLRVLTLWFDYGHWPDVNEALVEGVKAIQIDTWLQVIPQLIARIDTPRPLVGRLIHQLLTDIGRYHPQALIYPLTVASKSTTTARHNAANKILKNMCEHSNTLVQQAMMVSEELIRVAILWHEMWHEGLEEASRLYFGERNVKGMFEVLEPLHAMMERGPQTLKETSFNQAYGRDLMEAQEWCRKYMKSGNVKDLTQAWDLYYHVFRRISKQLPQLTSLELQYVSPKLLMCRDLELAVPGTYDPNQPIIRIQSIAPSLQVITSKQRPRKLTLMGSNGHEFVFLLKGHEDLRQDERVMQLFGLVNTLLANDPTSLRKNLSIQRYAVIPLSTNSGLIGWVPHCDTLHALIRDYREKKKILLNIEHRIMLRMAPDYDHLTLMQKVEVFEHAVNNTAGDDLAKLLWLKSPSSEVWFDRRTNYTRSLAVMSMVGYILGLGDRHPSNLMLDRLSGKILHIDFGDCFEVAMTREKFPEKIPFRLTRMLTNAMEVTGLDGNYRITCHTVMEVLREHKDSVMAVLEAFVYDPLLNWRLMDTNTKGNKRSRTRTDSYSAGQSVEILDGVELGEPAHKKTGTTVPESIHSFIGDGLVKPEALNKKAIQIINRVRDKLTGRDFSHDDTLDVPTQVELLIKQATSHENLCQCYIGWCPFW

Row | Structure (SMILES) | mTOR % inhibition @ 1 μM
1 | COc1cc(C)cc2cc(-c3c(CN4CCC(O)C4)cn4ncnc(N)c34)sc12 (racemic) [Example 18, rac-1-{[4-Amino-5-(7-methoxy-5-methyl-1-benzothiophen-2-yl)pyrrolo[2,1-f][1,2,4]triazin-6-yl]-methyl}pyrrolidin-3-ol dihydrochloride] | no inhib. effect detect.
2 | COc1cc(C)cc2cc(-c3c(CNC(C)=O)cn4ncnc(N)c34)sc12 [Example 9, N-{[4-Amino-5-(7-methoxy-5-methyl-1-benzothiophen-2-yl)pyrrolo[2,1-f][1,2,4]triazin-6-yl]-methyl}acetamide] | no inhib. effect detect.
3 | COc1cc(C)cc2cc(-c3c(CO)cn4ncnc(N)c34)sc12 [Example 32, [4-Amino-5-(7-methoxy-5-methyl-1-benzothiophen-2-yl)pyrrolo[2,1-f][1,2,4]triazin-6-yl]methanol] | no inhib. effect detect.
4 | COc1cc(C)cc2cc(-c3c(CNCC(C)O)cn4ncnc(N)c34)sc12 (racemic) [Example 26, rac-1-({[4-Amino-5-(7-methoxy-5-methyl-1-benzothiophen-2-yl)pyrrolo[2,1-f][1,2,4]triazin-6-yl]-methyl}amino)propan-2-ol dihydrochloride] | no inhib. effect detect.

Same assay, conditions: read-out: mTOR % inhibition @ 1 μM

Row | Structure (SMILES) | inhibition at 1 µM [%]
5 | COc1cc(C)cc2cc(-c3c(CN4CCN(C(=O)OC(C)(C)C)CC4)cn4ncnc(N)c34)sc12 [Example 22, tert-Butyl 4-{[4-amino-5-(7-methoxy-5-methyl-1-benzothiophen-2-yl)pyrrolo[2,1-f][1,2,4]triazin-6-yl]methyl}piperazine-1-carboxylate trifluoroacetate] | 1.6
6 | CCOC(=O)CNCc1cn2ncnc(N)c2c1-c1cc2cc(C)cc(OC)c2s1 [Example 15, Ethyl N-{[4-amino-5-(7-methoxy-5-methyl-1-benzothiophen-2-yl)pyrrolo[2,1-f][1,2,4]triazin-6-yl]-methyl}glycinate dihydrochloride] | 4

Same assay, conditions: read-out: mTOR % inhibition @ 1 μM; 1 μM test compound; mean inhibition values

Row | inhibition at 1 µM [%] | Structure (SMILES)
7 | 11.3 | COc1cc(C)cc2cc(-c3c(COCC(N)=O)cn4ncnc(N)c34)sc12 [Example 6, 2-{[4-Amino-5-(7-methoxy-5-methyl-1-benzothiophen-2-yl)pyrrolo[2,1-f][1,2,4]triazin-6-yl]-methoxy}acetamide]
8 | 0.6 | Cc1ccc2sc(-c3c(CN4CCNC(=O)C4)cn4ncnc(N)c34)cc2c1 [Example 29, 4-{[4-Amino-5-(5-methyl-1-benzothiophen-2-yl)pyrrolo[2,1-f][1,2,4]triazin-6-yl]methyl}piperazin-2-one]

Target: human FGFR-3 (Homo sapiens (Human), UniProt P22607)
Assay: FGFR-3 kinase assay (TR-FRET)
Assay type: biochemical
Settings: 10 μM ATP; compounds of the invention

human FGFR-3, sequence (P22607 397-806): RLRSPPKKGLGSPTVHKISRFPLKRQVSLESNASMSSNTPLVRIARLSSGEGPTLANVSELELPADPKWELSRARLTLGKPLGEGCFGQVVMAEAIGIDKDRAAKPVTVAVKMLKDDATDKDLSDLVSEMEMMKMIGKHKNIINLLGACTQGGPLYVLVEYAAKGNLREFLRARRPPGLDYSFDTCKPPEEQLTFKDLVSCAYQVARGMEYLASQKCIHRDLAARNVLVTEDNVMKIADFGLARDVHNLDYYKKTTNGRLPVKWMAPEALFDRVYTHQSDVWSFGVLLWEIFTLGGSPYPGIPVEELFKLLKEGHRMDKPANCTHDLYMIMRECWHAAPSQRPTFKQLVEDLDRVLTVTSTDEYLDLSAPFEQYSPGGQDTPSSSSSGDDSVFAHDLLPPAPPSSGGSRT

Row | IC50 [nM] | Structure (SMILES)
9 | 4.4 | COc1cc(C)cc2cc(-c3c(CN4CCCC(C(N)=O)C4)cn4ncnc(N)c34)sc12 (centres unmarked) [Example 69]
10 | 4 | COc1cc(C)cc2cc(-c3c(CN(C)CC(C)OC)cn4ncnc(N)c34)sc12 (centres unmarked) [Example 59]
11 | 4.4 | COc1cc(C)cc2cc(-c3c(COCC(N)=O)cn4ncnc(N)c34)sc12 [Example 6, 2-{[4-Amino-5-(7-methoxy-5-methyl-1-benzothiophen-2-yl)pyrrolo[2,1-f][1,2,4]triazin-6-yl]-methoxy}acetamide]
12 | 14.6 | COc1cc(C)cc2cc(-c3c(CN(C)CC(F)(F)F)cn4ncnc(N)c34)sc12 [Example 61]
13 | 18.7 | Cc1ccc2sc(-c3c(CN4CCNC(=O)C4)cn4ncnc(N)c34)cc2c1 [Example 29, 4-{[4-Amino-5-(5-methyl-1-benzothiophen-2-yl)pyrrolo[2,1-f][1,2,4]triazin-6-yl]methyl}piperazin-2-one]
14 | 10.7 | COc1cc(C)cc2cc(-c3c(COCCN4CCCC4)cn4ncnc(N)c34)sc12 [Example 43]
15 | 1.1 | COc1cc(C)cc2cc(-c3c(CN4CCC(C(N)=O)CC4)cn4ncnc(N)c34)sc12 [Example 64]
16 | 12.5 | COc1cc(C)cc2cc(-c3c(CN4CCC(OC)CC4)cn4ncnc(N)c34)sc12 [Example 60]
17 | 4.9 | COc1cc(C)cc2cc(-c3c(CN4CCOC(C)C4)cn4ncnc(N)c34)sc12 (centres unmarked) [Example 76]
18 | 3.6 | COc1cc(C)cc2cc(-c3c(CNC4CC4)cn4ncnc(N)c34)sc12 [Example 48]
19 | 2.6 | COc1cc(C)cc2cc(-c3c(CN4CCCC(OC)C4)cn4ncnc(N)c34)sc12 (centres unmarked) [Example 62]
20 | 1.8 | COc1cc(OC)c2sc(-c3c(CN4CCNC(=O)C4)cn4ncnc(N)c34)cc2c1 [Example 33, 4-{[4-Amino-5-(5,7-dimethoxy-1-benzothiophen-2-yl)pyrrolo[2,1-f][1,2,4]triazin-6-yl]methyl}-piperazin-2-one]
21 | 5.5 | COc1cc(C)cc2cc(-c3c(CNC4CCS(=O)(=O)C4)cn4ncnc(N)c34)sc12 (centres unmarked) [Example 72]
22 | 2.3 | COc1cc(C)cc2cc(-c3c(CNC4CCOC4)cn4ncnc(N)c34)sc12 (centres unmarked) [Example 73]
23 | 9.1 | COc1cc(C)cc2cc(-c3c(COCC#N)cn4ncnc(N)c34)sc12 [Example 40]
24 | 3 | COc1cc(C)cc2cc(-c3c(CN(C)C4CCS(=O)(=O)C4)cn4ncnc(N)c34)sc12 (centres unmarked) [Example 57]
25 | 0.7 | COc1cc(C)cc2cc(-c3c(CN4CCCCC4)cn4ncnc(N)c34)sc12 [Example 51]

The next lines start with the compound.

Row | Structure (SMILES) | IC50 [nM]
26 | COc1cc(C)cc2cc(-c3c(CN4CCN(C(=O)OC(C)(C)C)CC4)cn4ncnc(N)c34)sc12 [Example 22, tert-Butyl 4-{[4-amino-5-(7-methoxy-5-methyl-1-benzothiophen-2-yl)pyrrolo[2,1-f][1,2,4]triazin-6-yl]methyl}piperazine-1-carboxylate trifluoroacetate] | 10.8
27 | COc1cc(C)cc2cc(-c3c(CN4CNC(=O)C4)cn4ncnc(N)c34)sc12 [Example 56] | 3.1
28 | COc1cc(C)cc2cc(-c3c(COCCCN(C)C)cn4ncnc(N)c34)sc12 [Example 45] | 24.8
29 | COc1cc(C)cc2cc(-c3c(CN4CCCOCC4)cn4ncnc(N)c34)sc12 [Example 54] | 2.3
30 | COc1cc(C)cc2cc(-c3c(CN4CCC(O)C4)cn4ncnc(N)c34)sc12 (racemic) [Example 18, rac-1-{[4-Amino-5-(7-methoxy-5-methyl-1-benzothiophen-2-yl)pyrrolo[2,1-f][1,2,4]triazin-6-yl]-methyl}pyrrolidin-3-ol dihydrochloride] | 1.3
31 | COc1cc(C)cc2cc(-c3c(COCCN4CCCCC4)cn4ncnc(N)c34)sc12 [Example 44] | 9.3
32 | COc1cc(C)cc2cc(-c3c(CNC(C)=O)cn4ncnc(N)c34)sc12 [Example 9, N-{[4-Amino-5-(7-methoxy-5-methyl-1-benzothiophen-2-yl)pyrrolo[2,1-f][1,2,4]triazin-6-yl]-methyl}acetamide] | 0.2
33 | CCOC(=O)CNCc1cn2ncnc(N)c2c1-c1cc2cc(C)cc(OC)c2s1 [Example 15, Ethyl N-{[4-amino-5-(7-methoxy-5-methyl-1-benzothiophen-2-yl)pyrrolo[2,1-f][1,2,4]triazin-6-yl]-methyl}glycinate dihydrochloride] | 87.1
34 | COc1cc(C)cc2cc(-c3c(CN4CCN(C5CC5)CC4)cn4ncnc(N)c34)sc12 [Example 58] | 6.2
35 | CCC(C)NCc1cn2ncnc(N)c2c1-c1cc2cc(C)cc(OC)c2s1 (centres unmarked) [Example 74] | 5
36 | COc1cc(C)cc2cc(-c3c(CN4CCNC(=O)C4C)cn4ncnc(N)c34)sc12 (centres unmarked) [Example 55] | 1.4
37 | COc1cc(C)cc2cc(-c3c(CN4CC(OC)C4)cn4ncnc(N)c34)sc12 [Example 53] | 15.1
38 | COc1cc(C)cc2cc(-c3c(CN4CCCN(C)CC4)cn4ncnc(N)c34)sc12 [Example 68] | 0.8
39 | COc1cc(C)cc2cc(-c3c(CN4CCS(=O)(=O)CC4)cn4ncnc(N)c34)sc12 [Example 77] | 15.3
40 | COc1cc(C)cc2cc(-c3c(COCCN4CCOCC4)cn4ncnc(N)c34)sc12 [Example 42] | 30
41 | COc1cc(C)cc2cc(-c3c(CN4CCCC(N(C)C)C4)cn4ncnc(N)c34)sc12 (centres unmarked) [Example 67] | 0.6
42 | COc1cc(C)cc2cc(-c3c(CN4CCCC4)cn4ncnc(N)c34)sc12 [Example 47] | 1
43 | COCCN(C)Cc1cn2ncnc(N)c2c1-c1cc2cc(C)cc(OC)c2s1 [Example 70] | 7.4
44 | COc1cc(C)cc2cc(-c3c(CN4CC[C@@H](N(C)C)C4)cn4ncnc(N)c34)sc12 [Example 65] | 0.6
45 | COc1cc(C)cc2cc(-c3c(CN4CCN(C)CC4)cn4ncnc(N)c34)sc12 [Example 50] | 0.1
46 | COc1cc(C)cc2cc(-c3c(CN4CCC(F)(F)C4)cn4ncnc(N)c34)sc12 [Example 63] | 3
47 | COCCN(Cc1cn2ncnc(N)c2c1-c1cc2cc(C)cc(OC)c2s1)C(C)C [Example 49] | 14.2
48 | COc1cc(C)cc2cc(-c3c(COCCCC#N)cn4ncnc(N)c34)sc12 [Example 41] | 12.7
49 | COc1cc(C)cc2cc(-c3c(CN4CC[C@H](N(C)C)C4)cn4ncnc(N)c34)sc12 [Example 66] | 0.5
50 | COc1cc(C)cc2cc(-c3c(CN4CCOC(C)(C)C4)cn4ncnc(N)c34)sc12 [Example 52] | 3.8
